{"source": "patent US20250387388A1", "about": "“COMPOUND AS TRK INHIBITOR AND/OR RET INHIBITOR AND USE THEREOF” (Medinno Pharmaceutical Technology (Zhuhai) Co., Ltd., priority 2022, published 2025)", "tested_on": "vitiligo model in mice", "assay": "Vitiligo model in mice (monobenzone)", "format": "in vivo, C57BL/6 mice", "conditions": "for IL-6 level in serum / TNF-α level in serum: 3% MDI-1228 gel", "description": "• (1) Normal control group (5 mice, no treatment) • (2) Vitiligo model group (8 mice, no treatment) • (3) Vitiligo model+vehicle treatment group (8 mice, blank gel preparation, dose: 1.5 g/kg, twice daily) • (4) Vitiligo model+positive control drug treatment group (8 mice, 0.03% Tacrolimus, twice daily, 50 mg per dose) • (5) Vitiligo model+MDI-1228 (0.5%) compound gel preparation group (8 mice, 1 g/kg, twice daily) • (6) Vitiligo model+MDI-1228 (1%) compound gel preparation group (8 mice, 1.5 g/kg, twice daily) • (7) Vitiligo model+MDI-1228 (3%) compound gel preparation group (8 mice, 1.5 g/kg, twice daily) • Experimental environment: Temperature 20° C.-26° C., humidity 40%-70%\nModeling: Mice were acclimated for 7 days and subjected to vitiligo modeling by removing the black hair from a 2 cm^2 area on the back of the mice and applying the medication with a spatula using moderate force. The normal control group was administrated with Vaseline 50 mg once daily; and the model group was administrated with 40% monobenzone cream 50 mg once daily for 93 consecutive days.\nModel validation: One mouse from the blank group and one from the model group were selected for model validation. The criteria for hair depigmentation assessment: Observe the skin & hair depigmentation daily and record the scores. Divide the depigmented area into the treated area and the non-treated area, with a total score of 5 for each area, making a total of 10 points for each mouse. The scoring criteria for mouse skin & hair depigmentation: 0 points for no depigmentation, 1 point for depigmentation area of 0-10%, 2 points for depigmentation area of 11%-25%, 3 points for depigmentation area of 26%-50%, 4 points for depigmentation area of 51%-75%, and 5 points for depigmentation area of 76%-100%.\nAfter a 35-days treatment administration, a 15-day visual observation of the therapeutic efficacy for vitiligo in the treated mice began, with observations conducted every 3 days (for a total of 5 times) and photographs taken during each observation. The criteria for evaluating efficacy were as follows: The depigmented areas were divided into treated and non-treated areas, with a total score of 5 for each area, making a total of 10 points for each mouse. The scoring criteria for mouse skin & hair depigmentation are: 0 points for no depigmentation, 1 point for a depigmentation area of 0-10%, 2 points for a depigmentation area of 11%-25%, 3 points for a depigmentation area of 26%-50%. 4 points for a depigmentation area of 51%-75%, and 5 points for a depigmentation area of 76%-100%.\n(1) HE Staining: The removed tissue was rinsed with running water for several hours, dehydrated through a series of ethanol solutions (70%, 80%, 90%), and then treated with a mixture of pure alcohol and xylene at a ratio of 1:1 for 15 minutes, followed by xylene I for 15 minutes and xylene II for 15 minutes (until transparent). The tissue was then placed in a mixture of xylene and paraffin at a ratio of 1:1 for 15 minutes, followed by immersion with paraffin I and paraffin II each for 50-60 minutes. The tissue was embedded in paraffin and sectioned. The sections were mounted, baked, dewaxed and hydrated in distilled water. The resulting sections were then stained in hematoxylin solution for 3 minutes, differentiated in a hydrochloric acid alcohol solution for 15 seconds, slightly washed, blued in a return blue solution for 15 seconds, rinsed with running water, stained with eosin for 3 minutes, rinsed with running water, dehydrated, cleared, and mounted for microscopic examination.\n(2) ELISA detection: A double-antibody one-step sandwich Enzyme-linked Immunosorbent Assay (ELISA) kit was used. A capture antibody for the mouse target indicators was pre-coated onto microplate wells, to which samples, standards, and HRP-labeled detection antibodies were added sequentially, followed by incubation and thorough washing. […]", "key": {"[1]": {"conditions": "0.5%, 1%, positive control drug, vs. model group"}}}
{"smiles": "CCc1cc(O)c(F)cc1-c1ccc2c(-c3nc4c([nH]3)CN(C(=O)N3CC[C@H](O)C3)C4)n[nH]c2c1", "note": "[MDI-1228, (S)-(2-(6-(2-ethyl-5-fluoro-4-hydroxyphenyl)-1H-indazol-3-yl)-4,6-dihydropyrrolo[3,4-d]imidazol-5-(1H)-yl)(3-hydroxylpyrrolidin-1-yl)ketone]", "values": [{"measurement": "Skin & hair depigmentation area scores", "setting": "0.5%, 1%, 3% MDI-1228 gel twice daily, vs. model group", "value": "a reduction in depigmentation area scores"}, {"measurement": "IL-6 level in serum", "setting": "[1]", "value": "a reduced IL-6 level"}, {"measurement": "TNF-α level in serum", "setting": "[1]", "value": "a reduced TNF-α level"}, {"measurement": "Skin HE staining (hair follicles, melanin granules)", "setting": "1% and 3% MDI-1228 gel", "value": "the most significant effects"}, {"measurement": "IL-6 level in serum", "value": "the most significant reduction in IL-6 level"}, {"measurement": "TNF-α level in serum", "value": "the most significant reduction in TNF-α level"}, {"measurement": "Area under the curve (AUC) of depigmentation scores", "setting": "3% MDI-1228 gel 1.5 g/kg twice daily, vs. model group", "value": "the greatest reduction in AUC scores"}, {"measurement": "Therapeutic effect in vitiligo mice (conclusion)", "setting": "different concentrations of MDI-1228", "value": "significant therapeutic effect"}]}
